Experimental data published in publication PMC7725506, “Functional Diversification of SRSF Protein Kinase to Control Ubiquitin-Dependent Neurodevelopmental Signaling” (Developmental Cell, 2020).

How the values were obtained:
[1] = target: 50 representative kinases; test: Kinase inhibitor profiling, in vitro kinase assays for 50 representative kinases; assay type: biochemical; details: 1 μM, SRPK1 compared with 49 other kinases
Description: Kinase activity towards specific peptides was assessed in comparison to DMSO control. Full details are available at http://www.kinase-screen.mrc.ac.uk/services/express-screen.
(§1) Supplemental Figure Legends
Figure S1. Differential inhibitor sensitivities and expression profiles of SRPK kinases (Related to Figure 1). (A) Wild-type (WT) mESCs were analysed for protein copy number by absolute quantitative proteomics. SRPK1, SRPK2 and SRPK3 protein copy numbers are shown.
Data are represented as mean ± S.E.M. (n=3). Unpaired Student’s t test, two-sided, confidence level 95%. (****) P<0.0001. ND = not detected. (B) Inhibition of RNF12 phosphorylation in vitro by SRPK1 and SRPK2 in the presence of varying concentrations of the indicated SRPK inhibitors was determined by immunoblotting for RNF12 phospho-Ser214 (Left). RNF12 levels are shown as a control. Immunoblots were quantified to generate SRPK inhibitor dose-response curves for inhibition of RNF12 phosphorylation by SRPK1 and SRPK2 in vitro (Right). (C) WT, Srpk1-/- and Srpk2-/- mESCs were cultured and SRPK protein expression was analysed via immunoblotting. […]
SR-motif phosphorylation of HA-immunoprecipitated RNF12 analysed by phos-tag immunoblotting. […]
(DYRK1A inhibitor), WEHI-345 (RIPK2 inhibitor), IRAK-4-Inhibitor-a (IRAK4 inhibitor) and GSK-461364 (PLK1/2 inhibitor) for 4 h, and RNF12 phosphorylation analysed via phos-tag immunoblotting. […]

RNF12 SR-motif = RNF12 SR-motif phosphorylation in mouse cortical neurons by phos-tag immunoblotting; assay type: cell-based; details: mature mouse cortical neurons cultured for 21 days, 10 μM, 4 h
Description: Figure 7 The SRPK-RNF12 Signaling Pathway Operates in Neurons (A) Primary cortical neurons isolated from E16.5 C57BL6 mice were cultured for the indicated number of days in vitro (DIV) and RNF12, SRPK1, and SRPK2, synaptophysin and actin levels analyzed via immunoblotting alongside the indicated mESC lines. (B) Cortical neurons were cultured for 21 days and treated with 10 μM MG132 and protein levels analyzed by immunoprecipitation and immunoblotting (REX1) and immunoblotting (RNF12 and ERK1/2). (C) Cortical neurons were cultured in vitro for the indicated number of days (DIV) and RNF12 and MAP2 neuron specific marker analyzed by immunofluorescence. Scale bar: 20 μm. (D) RNF12 SR-motif phosphorylation during in vitro mouse cortical neuron maturation was analyzed via phos-tag immunoblotting for RNF12. […] Synaptophysin and actin levels were determined by immunoblotting. […] Synaptophysin and actin levels were determined by immunoblotting. (F) The SRPK-RNF12-REX1 signaling pathway regulates neural gene expression and is disrupted in intellectual disability disorders. SRPK phosphorylates the RNF12 SR-motif to promote REX1 ubiquitylation and proteasomal degradation, which acts as a “brake” for neural gene expression in self-renewing pluripotent stem cells. In intellectual disability, inactivating mutations in SRPKs or RNF12 lead to REX1 accumulation and aberrant induction of neural genes. […]

SRPK2 = SRPK2 (Homo sapiens, UniProt P78362); test: Inhibition of RNF12 phosphorylation in vitro by SRPK2 (phospho-Ser214 immunoblot, dose-response); assay type: biochemical; details: only this inhibitor of SRPIN340, SPHINX31, SRPKIN-1
Sequence of SRPK2 (P78362 1-699 isoform P78362-2): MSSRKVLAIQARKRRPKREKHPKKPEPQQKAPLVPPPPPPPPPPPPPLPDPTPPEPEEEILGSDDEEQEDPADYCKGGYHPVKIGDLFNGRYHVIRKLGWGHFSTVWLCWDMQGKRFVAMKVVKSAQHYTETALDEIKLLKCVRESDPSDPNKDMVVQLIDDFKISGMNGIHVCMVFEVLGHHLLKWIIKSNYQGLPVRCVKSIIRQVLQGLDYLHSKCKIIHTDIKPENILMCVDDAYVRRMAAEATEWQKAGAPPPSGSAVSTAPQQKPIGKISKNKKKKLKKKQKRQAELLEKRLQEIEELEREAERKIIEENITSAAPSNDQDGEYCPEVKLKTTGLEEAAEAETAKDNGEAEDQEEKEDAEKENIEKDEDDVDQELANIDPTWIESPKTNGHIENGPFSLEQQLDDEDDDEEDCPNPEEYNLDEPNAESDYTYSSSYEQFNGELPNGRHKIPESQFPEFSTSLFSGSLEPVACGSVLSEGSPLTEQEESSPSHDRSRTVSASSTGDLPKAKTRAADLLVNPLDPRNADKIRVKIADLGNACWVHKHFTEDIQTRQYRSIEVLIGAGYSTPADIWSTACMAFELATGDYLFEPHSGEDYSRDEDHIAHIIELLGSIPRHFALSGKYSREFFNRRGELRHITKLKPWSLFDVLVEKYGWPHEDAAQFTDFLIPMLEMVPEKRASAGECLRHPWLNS
Description: Cells were lysed, and 1.5 mg of protein immunoprecipitated with 2 μg of SRPK1 or SRPK2 antibodies (BD Biosciences). Immunoprecipitates were then washed with lysis buffer supplemented with 500 mM NaCl and half of the sample was resuspended in loading buffer. The remainder was subjected to in vitro phosphorylation assay containing 0.5 μg RNF12 and 2 mM ATP in kinase buffer (50 mM Tris-HCl [pH 7.5], 0.1 mM EGTA, 10 mM MgCl2, 2 mM DTT) and incubated at 30°C for 30 min. […] For radioactive in vitro kinase assays, reactions were supplemented with 1 μCi γ-^32P ATP. Reactions were incubated at 30°C for 30 min in presence or absence of inhibitor as indicated and samples subjected to polyacrylamide electrophoresis and immunoblot or Coomassie blue staining and signal detected via ECL, infrared detection or autoradiography.
as §1
(Related to Figure 1). (A) Wild-type (WT) mESCs were analysed for protein copy number by absolute quantitative proteomics. […]
Data are represented as mean ± S.E.M. (n=3). […] ND = not detected. (B) Inhibition of RNF12 phosphorylation in vitro by SRPK1 and SRPK2 in the presence of varying concentrations of the indicated SRPK inhibitors was determined by immunoblotting for RNF12 phospho-Ser214 (Left). […] Immunoblots were quantified to generate SRPK inhibitor dose-response curves for inhibition of RNF12 phosphorylation by SRPK1 and SRPK2 in vitro (Right). […]

For `CCc1cc2c(cc1-c1cccc(S(=O)(=O)F)c1)C(C)(C)c1[nH]c3cc(C#N)ccc3c1C2=O` [SRPKIN-1], the kinase inhibition specificity [1] was “highly specific”, the “RNF12 phosphorylation (phos-tag)” value (RNF12 SR-motif) was “suppressed RNF12 phosphorylation” and the “inhibition of SRPK2” value (SRPK2) was “potently inhibited”.
